Legend:
Microsporum canis [1] = assay: Direct addition method, solid compound in Sabouraud dextrose agar; assay type: cell-based; conditions: against Microsporum canis
Procedure: (§1) Direct addition method. Sabouraud dextrose agar was prepared according to the manufacturer's instructions and 5.0 ml was dispensed in each 100×25 mm tube. The tubes were autoclaved. To each tube containing 5.0 ml of liquid agar at 45° C., 20 mg of solid test compound was added, to give a final concentration of 4 mg/ml. The agar was solidified in slants. The fungal cultures were then innoculated. The slants were incubated at 25-28 ° C. for 10-12 days, and the growth of the fungus was recorded every second day. The results in Table 2 indicate growth at the 12th day of inoculation.

Microsporum audouinni [2] = assay: as above; assay type: cell-based, Microsporum audouinii; design: key to Fungal growth: +++: Maximum Fungal Growth; ++: Moderate Fungal Growth; +: Minimum Fungal Growth; +/−: Very little Fungal Growth; −: No Fungal Growth; conditions: 4 mg/mL of agar; 12th day after inoculation
Procedure, shortened: (§2)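 Direct-addition agar test: compound (4 mg/ml final, added undissolved to molten Sabouraud dextrose agar) in slants, incubated 25-28° C. with growth noted on day 12.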

Trichophyton tonsuran [3] = assay: as above; assay type: cell-based, Trichophyton tonsurans; design: key: +++: Maximum Fungal Growth; ++: Moderate Fungal Growth; +: Minimum Fungal Growth; +/−: Very little Fungal Growth; −: No Fungal Growth; conditions: 4 mg/mL of agar; 12th day after inoculation
Procedure: as §1

Epidermophyton floccosum [4] = assay: as above; assay type: cell-based; design: key: +++: Maximum Fungal Growth; ++: Moderate Fungal Growth; +: Minimum Fungal Growth; +/−: Very little Fungal Growth; −: No Fungal Growth; conditions: 4 mg/mL of agar; 12th day after inoculation
Procedure, shortened: as §2

Microsporum canis [5] = assay: as above; assay type: cell-based; design: key: +++: Maximum Fungal Growth; ++: Moderate Fungal Growth; +: Minimum Fungal Growth; +/−: Very little Fungal Growth; −: No Fungal Growth; conditions: 4 mg/mL of agar; 12th day after inoculation
Procedure, shortened: as §2

Microsporum gypseum [6] = assay: as above; assay type: cell-based; design: key: +++: Maximum Fungal Growth; ++: Moderate Fungal Growth; +: Minimum Fungal Growth; +/−: Very little Fungal Growth; −: No Fungal Growth; conditions: 4 mg/mL of agar; 12th day after inoculation
Procedure, shortened: as §2

Pityrosporum ovale [7] = assay: as above; assay type: cell-based; design: key: +++: Maximum Fungal Growth; ++: Moderate Fungal Growth; +: Minimum Fungal Growth; +/−: Very little Fungal Growth; −: No Fungal Growth; conditions: 4 mg/mL of agar; 12th day after inoculation
Procedure, shortened: as §2

[8] = system: Trichophyton mentagrophytes; assay: as above; assay type: cell-based; design: key: +++: Maximum Fungal Growth; ++: Moderate Fungal Growth; +: Minimum Fungal Growth; +/−: Very little Fungal Growth; −: No Fungal Growth; conditions: 4 mg/mL of agar; 12th day after inoculation
Procedure, shortened: as §2

Trichophyton rubrum [9] = assay: as above; assay type: cell-based; design: key: +++: Maximum Fungal Growth; ++: Moderate Fungal Growth; +: Minimum Fungal Growth; +/−: Very little Fungal Growth; −: No Fungal Growth; conditions: 4 mg/mL of agar; 12th day after inoculation
Procedure, shortened: as §2

Pityrosporum ovale [10] = assay: Direct addition into the Pityrosporum agar; assay type: cell-based; design: key to Pityrosporum ovale growth: +++: Maximum Growth; ++: Moderate Growth; +: Minimum Growth; +/−: Very Little Growth; −: No Growth; conditions: for Pityrosporum ovale growth: 4 mg/ml in the agar, 18 hours after inoculation
Procedure: as §1, with “The slants were incubated at 25-28 ° C. for 10-12 days, and the growth of the fungus was recorded every second day. The results in Table 2 indicate growth at the 12th day of inoculation.” left out

[11] = system: Trichophyton mentagrophytes; assay: Direct addition to liquid culture method, optical density at 600 nm; assay type: cell-based; conditions: 25, 50 and 100 μg/ml; 12 days
Procedure: Direct addition to liquid culture method. Sabouraud dextrose broth was prepared according to the manufacturer's instructions, and 7.0 ml was dispensed into 100×25 mm tubes and autoclaved. To each tube containing 7.0 ml of liquid broth, the test compounds dissolved in DMSO were added to final concentrations of 25, 50, and 100 μg/ml. The tubes were then inoculated with 150 μl of a fungus suspension and incubated at 25-28° C. for 10-12 days. Growth was measured every second day by measuring optical density at 600 nm against a blank containing sterile broth.

Microsporum canis [12] = assay: Agar dilution method, growth on Sabouraud dextrose agar slants; assay type: cell-based; design: key: +++: Maximum Fungal Growth; ++: Moderate Fungal Growth; +: Minimum Fungal Growth; +/−: Very little Fungal Growth; −: No Fungal Growth; conditions: 12th day after inoculation
Procedure, shortened: (§3)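 SDA slants containing test compound (added from DMSO solution into 45 °C agar); inoculated with fungal culture; 25-28 °C, 10-12 d; growth read every 2nd day.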

Microsporum gypseum [13] = assay: as above; assay type: cell-based; design: key: +++: Maximum Fungal Growth; ++: Moderate Fungal Growth; +: Minimum Fungal Growth; +/−: Very little Fungal Growth; −: No Fungal Growth; conditions: 12th day after inoculation
Procedure, shortened: as §3

Pityrosporum ovale [14] = assay: as above; assay type: cell-based; design: key: +++: Maximum Fungal Growth; ++: Moderate Fungal Growth; +: Minimum Fungal Growth; +/−: Very little Fungal Growth; −: No Fungal Growth; conditions: 12th day after inoculation
Procedure, shortened: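 Readout: fungal growth, noted on alternate days across a 10-12 day incubation at 25-28 °C. Test slants were Sabouraud dextrose agar with compound incorporated from DMSO before solidification.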

Trichophyton rubrum [15] = assay: as above; assay type: cell-based; design: key: +++: Maximum Fungal Growth; ++: Moderate Fungal Growth; +: Minimum Fungal Growth; +/−: Very little Fungal Growth; −: No Fungal Growth; conditions: 12th day after inoculation
Procedure, shortened: as §3

Microsporum audouinni [16] = assay: as above; assay type: cell-based, Microsporum audouinii; design: key: +++: Maximum Fungal Growth; ++: Moderate Fungal Growth; +: Minimum Fungal Growth; +/−: Very little Fungal Growth; −: No Fungal Growth; conditions: 12th day after inoculation
Procedure, shortened: as §3

Trichophyton tonsuran [17] = assay: as above; assay type: cell-based, Trichophyton tonsurans; design: key: +++: Maximum Fungal Growth; ++: Moderate Fungal Growth; +: Minimum Fungal Growth; +/−: Very little Fungal Growth; −: No Fungal Growth; conditions: 12th day after inoculation
Procedure, shortened: as §3

[18] = system: Trichophyton mentagrophyte; assay: as above; assay type: cell-based, Trichophyton mentagrophytes; design: key to Fungal growth: +++: Maximum Fungal Growth; ++: Moderate Fungal Growth; +: Minimum Fungal Growth; +/−: Very little Fungal Growth; −: No Fungal Growth; conditions: 12th day after inoculation
Procedure, shortened: as §3

Epidermophyton floccosum [19] = assay: as above; assay type: cell-based; design: key to Fungal growth: +++: Maximum Fungal Growth; ++: Moderate Fungal Growth; +: Minimum Fungal Growth; +/−: Very little Fungal Growth; −: No Fungal Growth; conditions: 12th day after inoculation
Procedure, shortened: as §3

Trichophyton rubrum [20] = assay: Direct addition method, solid compound in Sabouraud dextrose agar; assay type: cell-based; design: key: +++: Maximum Fungal Growth; ++: Moderate Fungal Growth; +: Minimum Fungal Growth; +/−: Very Little Fungal Growth; −: No Fungal Growth; conditions: 4 mg/mL of agar; 12th day after inoculation
Procedure: as §1

## C=C(C)[C@@H]1CC[C@]2(COC(=O)/C=C\C(=O)O)CC[C@]3(C)[C@H](CC[C@@H]4[C@@]5(C)CC[C@H](O)C(C)(C)[C@@H]5CC[C@]43C)[C@@H]12 [Betulin-28-maleate]
Microsporum canis [1]
  best anti-fungal or anti-yeast activity by the direct addition method: against Microsporum canis
Microsporum audouinni [2]
  Fungal growth: ++
Trichophyton tonsuran [3]
  Fungal growth: ++
Epidermophyton floccosum [4]
  Fungal growth: −
Microsporum canis [5]
  Fungal growth: −
Microsporum gypseum [6]
  Fungal growth: +++
Pityrosporum ovale [7]
  Fungal growth: −
[8]
  Fungal growth: ++
Trichophyton rubrum [9]
  Fungal growth: ++

## C=C(C)[C@@H]1CC[C@]2(C)CC[C@@]3(C)C(CCC4[C@@]5(C)CC[C@H](O)C(C)(C)C5CC[C@]43C)C12 (stereo partly drawn) [Lupeol, lup-20(29)-ene-3β-ol]
Microsporum audouinni [2]
  Fungal growth: +
Pityrosporum ovale [10]
  Pityrosporum ovale growth: +
[11]
  Growth inhibition in liquid culture (optical density, FIG. 1): inhibited the growth
Epidermophyton floccosum [4]
  Fungal growth: −
Microsporum canis [5]
  Fungal growth: +
Pityrosporum ovale [7]
  Fungal growth: −
Trichophyton rubrum [9]
  Fungal growth: +

## C[C@@H]1[C@H](O)[C@@H](C)/C=C/C=C/CC/C=C/C=C/C=C/C=C/C(O[C@H]2O[C@H](C)[C@@H](O)[C@H](N)[C@@H]2O)CC2O[C@](O)(CC(O)C(O)CCC(O)CC(O)CC(O)CC(=O)O[C@H]1C)CC(O)C2C(=O)O (stereo partly shown) [Nystatin, reference compound]
Microsporum canis [12]; 125 μg/ml
  Fungal growth: +
Microsporum canis [12]; 250 μg/ml
  Fungal growth: +/−
Microsporum canis [12]; 500 μg/ml
  Fungal growth: −
Microsporum canis [12]; 1000 μg/ml
  Fungal growth: −
Microsporum gypseum [13]; 125 μg/ml
  Fungal growth: +
Microsporum gypseum [13]; 250 μg/ml
  Fungal growth: +/−
Microsporum gypseum [13]; 500 μg/ml
  Fungal growth: −
Microsporum gypseum [13]; 1000 μg/ml
  Fungal growth: −
Pityrosporum ovale [14]; 125 μg/ml
  Fungal growth: +
Pityrosporum ovale [14]; 250 μg/ml
  Fungal growth: +/−
Pityrosporum ovale [14]; 500 μg/ml
  Fungal growth: −
Pityrosporum ovale [14]; 1000 μg/ml
  Fungal growth: −
Trichophyton rubrum [15]; 125 μg/ml
  Fungal growth: +
Trichophyton rubrum [15]; 250 μg/ml
  Fungal growth: +
Trichophyton rubrum [15]; 500 μg/ml
  Fungal growth: +/−
Trichophyton rubrum [15]; 1000 μg/ml
  Fungal growth: −
Microsporum audouinni [16]; 125 μg/ml
  Fungal growth: −
Microsporum audouinni [16]; 250 μg/ml
  Fungal growth: −
Microsporum audouinni [16]; 500 μg/ml
  Fungal growth: −
Microsporum audouinni [16]; 1000 μg/ml
  Fungal growth: −
Trichophyton tonsuran [17]; 125 μg/ml
  Fungal growth: +
Trichophyton tonsuran [17]; 250 μg/ml
  Fungal growth: +/−
Trichophyton tonsuran [17]; 500 μg/ml
  Fungal growth: −
Trichophyton tonsuran [17]; 1000 μg/ml
  Fungal growth: −
[18]; 125 μg/ml
  Fungal growth: +
[18]; 250 μg/ml
  Fungal growth: +
[18]; 500 μg/ml
  Fungal growth: −
[18]; 1000 μg/ml
  Fungal growth: −
Epidermophyton floccosum [19]; 125 μg/ml
  Fungal growth: +/−
Epidermophyton floccosum [19]; 250 μg/ml
  Fungal growth: −
Epidermophyton floccosum [19]; 500 μg/ml
  Fungal growth: −
Epidermophyton floccosum [19]; 1000 μg/ml
  Fungal growth: −
Microsporum audouinni [2]
  Fungal growth: −
Pityrosporum ovale [10]; 4 mg/ml
  Growth inhibition of Pityrosporum ovale by the direct addition method: inhibits growth
Pityrosporum ovale [10]
  Pityrosporum ovale growth: +/−
Epidermophyton floccosum [4]
  Fungal growth: −
Microsporum canis [5]
  Fungal growth: −
Pityrosporum ovale [7]
  Fungal growth: −
Trichophyton rubrum [20]
  Fungal growth: +/−

— patent US6642217B2, “Triterpenes having human antifungal and antiyeast activity” (Naturtek, LLC, priority 2000, dated 2003)
